This note sets out measurements from ChEMBL document CHEMBL4266064, “B-973, a Novel α7 nAChR Ago-PAM: Racemic and Asymmetric Synthesis, Electrophysiological Studies, and in Vivo Evaluation” (ACS Med Chem Lett, 2018).

Each structure is given as a SMILES string. The source made the active and inactive calls. No cut-off for these calls is given here.

Test [1] deals with Neuronal acetylcholine receptor subunit alpha-7 (Homo sapiens) (UniProt P36544). The test can be described thus: Positive allosteric modulation of human alpha7 nAChR expressed in Xenopus laevis oocytes assessed as increase in acetyl choline-evoked currents at 10 to 100 uM treated for 21 secs followed by compound washout measured after 181 secs by electrophysiology method. The test is classed as cell-based.
Chain of Neuronal acetylcholine receptor subunit alpha-7 (Homo sapiens) (P36544 whole entry): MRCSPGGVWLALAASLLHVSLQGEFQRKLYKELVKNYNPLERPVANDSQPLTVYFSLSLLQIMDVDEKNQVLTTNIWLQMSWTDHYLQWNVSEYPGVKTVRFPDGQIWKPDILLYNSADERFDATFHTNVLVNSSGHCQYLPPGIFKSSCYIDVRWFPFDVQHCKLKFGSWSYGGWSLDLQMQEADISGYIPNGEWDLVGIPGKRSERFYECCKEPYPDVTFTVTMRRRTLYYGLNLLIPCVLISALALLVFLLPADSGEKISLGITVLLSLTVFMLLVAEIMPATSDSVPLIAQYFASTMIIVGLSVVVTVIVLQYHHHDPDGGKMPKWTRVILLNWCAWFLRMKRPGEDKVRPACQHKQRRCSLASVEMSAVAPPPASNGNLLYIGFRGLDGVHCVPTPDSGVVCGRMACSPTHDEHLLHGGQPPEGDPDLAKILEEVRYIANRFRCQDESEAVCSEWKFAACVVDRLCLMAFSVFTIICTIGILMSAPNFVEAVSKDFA

Test [2] shares this target. As to the kind of experiment: Positive allosteric modulation of human alpha7 nAChR expressed in Xenopus laevis oocytes assessed as increase in acetyl choline-evoked currents at 100 uM pretreated followed by co-treatment with acetyl choline for 21 secs and subsequent compound washout measured after 181 secs by electrophysiology method. The format is cell-based.
For test [3] the target is unchanged. As to the kind of experiment: Positive allosteric modulation of human alpha7 nAChR expressed in Xenopus laevis oocytes assessed as increase in acetyl choline-evoked currents at 10 uM pretreated followed by co-treatment with acetyl choline for 21 secs and subsequent compound washout measured after 181 secs by electrophysiology method. The test is classed as cell-based.

Test [4] relates to Mus musculus. As to the kind of experiment: Antinociceptive activity in formalin-induced nociception pain ICR mouse model assessed as reduction in time spent licking in hind paw at 10 mg/kg, ip administered 15 mins prior to formalin challenge measured up to 5 mins. The test is classed as functional, organism-based.
Test [5] relates to Mus musculus. As to the kind of experiment: Antinociceptive activity in ip dosed formalin-induced nociception pain ICR mouse model assessed as reduction in time spent licking in hind paw administered 15 mins prior to formalin challenge measured after 20 to 45 mins. The format is functional, organism-based.
For test [6], the system named is Mus musculus. The test can be described thus: Antinociceptive activity in formalin-induced nociception pain ICR mouse model assessed as reduction in paw edema at 3 to 10 mg/kg, ip administered 15 mins prior to formalin challenge measured after 1 hr by calliper method. The format is functional, organism-based.
Test [7] deals with Mus musculus. As to the kind of experiment: Antinociceptive activity in formalin-induced nociception pain ICR mouse model assessed as reduction in time spent licking in hind paw at 10 mg/kg, ip administered 15 mins prior to formalin challenge measured up to 5 mins in presence of alpha7 nAChR antagonist MLA. The format is functional, organism-based.
Test [8] deals with Mus musculus. The test can be described thus: Antinociceptive activity in formalin-induced nociception pain ICR mouse model assessed as reduction in time spent licking in hind paw at 10 mg/kg, ip administered 15 mins prior to formalin challenge measured after 20 to 45 mins in presence of alpha7 nAChR antagonist MLA. The format is functional, organism-based.

As to `C[C@H](NC(=O)CCc1ccc(F)c(F)c1)c1cncc(N2CCN(c3ccccn3)CC2)n1`, the result (in test [1]; in test [2]; in test [3]; with Mus musculus [4]; with Mus musculus [6]) was Active. Further, in the test with Mus musculus [5], the Activity entry was “Dose-dependent effect”. Further, the outcome in the test on Mus musculus [7] and in the test on Mus musculus [8] was inactive.

`C[C@@H](NC(=O)CCc1ccc(F)c(F)c1)c1cncc(N2CCN(c3ccccn3)CC2)n1`: the result in test [1] and in test [2] was inactive.
